Consider 35 compounds from patent US20240368134A1, “AROMATIC COMPOUND, PHARMACEUTICAL COMPOSITION, AND APPLICATION THEREOF” (SHANGHAI KYGENT PHARMACEUTICAL CO., LTD, priority 2021, published 2024).

Molecules are shown by their SMILES. Like-named read-outs stand apart in the source and are kept apart here.

Series [1] can be described thus: Pharmacokinetic evaluation experiment in mice (IV and PO). In kind it is in vivo. As to conditions: mouse, plasma, male ICR mice; for AUC: read-out: AUC. As to the method:
120 healthy adult male ICR mice were selected and divided into 20 groups according to the principle of similar body weight, with 6 mice in each group of IV (10 groups) and 6 mice in each group of PO (10 groups). An appropriate amount of sample was weighed, sequentially added with an appropriate amount of DMA, Solutol, and Saline according to the volume ratio of 10:10:80, and stirred and sonicated to achieve a clarification of 1 mg/mL. After overnight fasting, mice in the IV group were intravenously administered with a volume of 5 mL/kg and a dose of 5 mg/kg, respectively; and mice in the PO group were intragastrically administered with a volume of 30 mL/kg and a dose of 30 mg/kg, respectively. Interleaved sampling was performed on every 6 mice after administration of the test compound. In the IV group, approximately 30 μL of blood was collected at 0.0833, 0.25, 0.5, 1, 2, 4, 6, 8, and 24 hours, and placed in a commercial anticoagulant tube pre-filled with EDTA-K2. In the PO group, approximately 30 μL of blood was collected at 0.25, 0.5, 1, 2, 4, 6, 8, and 24 hours, and placed in the commercial anticoagulant tube pre-filled with EDTA-K2. The tubes were centrifuged for 15 minutes to separate the plasma, and the plasma was stored at −80° C. Animals were allowed to eat 2 hours after administration. The content of the test compound in the plasma of mice after intravenous and intragastric administration was determined by LC/MS/MS method. The linear range of the method was 1.00 to 1000 ng/mL: plasma samples were analyzed after protein precipitation.

Series [2] relates to MSTO-211H cells. Kind of series: Tumor cell proliferation inhibition experiment (Cell Titer Glo), MSTO-211H. Particulars: MSTO-211H lung cancer cells, three days incubation. It is filed as cell-based. How it is done: (§1) Cell Titer Glo luminescent cell viability assay kit was used to quantify the ATP content in cells, so as to quantify the number of viable cells. […] On the second day, the compound was added to the 96-well plate after a three-fold serial dilution to eight concentrations, and incubated at 37° C. for three days in the 5% carbon dioxide incubator. The culture medium was treated with the addition of Cell Titer Glo luminescent cell viability assay kit (Promega G7570) reagent, incubated for 10 minutes, and then placed in Envision (Pelkin Elmer) to read the luminescence signal. DMSO was used instead of the compound as a control to calculate the inhibition rate (inhibition rate %=(1−compound signal/DMSO signal)*100), and then standard four parameter curve fitting was used to calculate the inhibitory activity IC50.
(Cellular ATP, detected with luciferase, serves as a proxy for viable cell number.)

The subject of series [3] is NCI-H2052 cells. Kind of series: Tumor cell proliferation inhibition experiment (Cell Titer Glo), NCI-H2052. As to conditions: NCI-H2052 lung cancer cells, three days incubation. In kind it is cell-based. How it is done: as §1

As usually defined, the bioavailability is the share of a dose that reaches the circulation, judged against a reference dose that is usually intravenous. The half-life is how long it takes for the measured level to halve. In general, AUC refers to the area under the concentration-time curve, a measure of exposure. What is called Cmax is the maximum level reached in the sampled fluid or tissue. In general, Tmax refers to the time at which the peak concentration occurs. As a reminder, the IC50 is the midpoint of a concentration-inhibition curve. Lower therefore signals greater potency in that assay. Consider `CNC(=O)c1cc2c(c(F)c1-c1c(Cl)c(F)cc3c1C[C@](c1ccccc1)([C@@H]1CCCN1)O3)OC1CC21` (stereo partly drawn) [Compound 17a], for which the bioavailability in series [1] (PO 30 mg/kg vs IV 5 mg/kg) stood at 52.2%. In series [1] (IV 5 mg/kg), the clearance turned out to be 75.8 mL/min/kg, the half-life is 1.79 h and the AUC was found to be 1100 ng·h/mL. In addition, the Vd in series [1] (IV 5 mg/kg, read-out: Vss) was determined as 11.7 L/kg. The AUC in series [1] (PO 30 mg/kg) came out at 3450 ng·h/mL. Besides, the Cmax in series [1] (PO 30 mg/kg, read-out: Cmax) is 424 ng/mL. The time to peak (Tmax) in series [1] (PO 30 mg/kg, read-out: Tmax) came out at 1.33 h. This compound showed an IC50 in series [2] (Homo sapiens, 72 h) of 0.08 µM. The compound also registered an IC50 in series [3] (Homo sapiens, 72 h) of 0.09 µM.
As for `CNC(=O)c1cc2c(c(F)c1-c1c(Cl)c(F)cc3c1C[C@](c1ccccc1)([C@@H]1CCCN1)O3)CCC2=O` [Compound 40a], the IC50 was 0.49 µM in series [2] (Homo sapiens, 72 h) and 0.6 µM in series [3] (Homo sapiens, 72 h).
On to `CNC(=O)c1cc2c(c(F)c1-c1c(Cl)c(F)cc3c1[C@H](C)[C@@](CN[C@H]1CC[C@](C)(O)CC1)(c1ccccc1)O3)C1CC1O2` (stereo partly drawn) [Compound 25a], for which the IC50 in series [2] (Homo sapiens, 72 h) came to 0.15 µM; in series [3] (Homo sapiens, 72 h) it was 0.26 µM.
In the same order, the values of `CNC(=O)c1cnc(OCCO)c(F)c1-c1c(C#N)c(F)cc2c1C[C@](c1ccccc1)([C@@H]1CCCN1)O2` [Compound 12a] are > 10 µM and > 10 µM.
For `CNC(=O)c1cc2c(c(F)c1-c1c(Cl)c(F)cc3c1C[C@](c1ccccc1)([C@@H]1CCCN1)O3)CCC2C#N` (stereo partly drawn) [Compound 38a], the IC50 in series [2] (Homo sapiens, 72 h) turned out to be 0.99 µM; in series [3] (Homo sapiens, 72 h), 0.75 µM.
The like results for `CNC(=O)c1cc2c(c(F)c1-c1c(Cl)c(F)cc3c1C[C@](c1ccccc1)([C@@H]1CCCN1)O3)N1C[C@H](O)CC1CO2` (stereo partly drawn) [Compound 4a] were, in that order, > 10 µM and 8.37 µM.
On to `CNC(=O)c1cc2c(c(F)c1-c1c(Cl)c(F)cc3c1[C@H](C)[C@@](CN[C@H]1CC[C@](C)(O)CC1)(c1ccccc1)O3)OC1CC21` (stereo partly drawn) [Compound 26a], for which the IC50 in series [2] (Homo sapiens, 72 h) amounted to 0.03 µM; in series [3] (Homo sapiens, 72 h) it was 0.04 µM.
In the same order, the values of `C[C@H]1c2c(cc(F)c(Cl)c2-c2c(C(N)=O)cc3c(c2F)C2CC2O3)O[C@]1(CN[C@H]1CC[C@](C)(O)CC1)c1ccccc1` (stereo partly drawn) [Compound 27a] are 0.1 µM and 0.21 µM.
Regarding `C[C@]1(O)CC[C@H](NC[C@@]2(c3ccccc3)Cc3c(cc(F)c(Cl)c3-c3c(C(N)=O)cc4c(c3F)OC3CC43)O2)CC1` (stereo partly drawn) [Compound 24a], the IC50 in series [2] (Homo sapiens, 72 h) was found to be 0.02 µM; in series [3] (Homo sapiens, 72 h) it was 0.04 µM.
The like results for `CNC(=O)c1cc2c(c(F)c1-c1c(Cl)c(F)cc3c1C[C@](c1ccccc1)([C@@H]1CCCN1)O3)CCC2F` (stereo partly drawn) [Compound 43a] were, in that order, 0.44 µM and 0.5 µM.
`CNC(=O)c1cc2c(c(F)c1-c1c(Cl)c(F)cc3c1C[C@@](CN[C@H]1CC[C@](C)(O)CC1)(c1ccccc1)O3)[C@@H]1C[C@@H]1O2` (single isomer, unassigned) [Compound 14a2]: the IC50 came out at 0.39 µM in series [2] (Homo sapiens, 72 h) and 0.59 µM in series [3] (Homo sapiens, 72 h).
In the same order, the values of `CNC(=O)c1cc2c(c(F)c1-c1c(Cl)c(F)cc3c1C[C@](c1ccccc1)([C@@H]1CCCN1)O3)CCC2S(C)(=O)=O` (stereo partly drawn) [Compound 46a] are 0.64 µM and 0.93 µM.
In the same order, the values of `CNC(=O)c1cc2c(c(F)c1-c1c(Cl)c(F)cc3c1C[C@@](CN[C@H]1CC[C@](C)(O)CC1)(c1ccccc1)O3)[C@H]1C[C@H]1O2` [Compound 14a1] are 0.22 µM and 0.29 µM.
On to `CNC(=O)c1cc2c(c(F)c1-c1c(Cl)c(F)cc3c1C[C@@](CN[C@H]1CC[C@](C)(O)CC1)(c1ccccc1)O3)OC1CC21` (stereo partly drawn) [Compound 22a], for which the IC50 was found to be 0.05 µM in series [2] (Homo sapiens, 72 h) and 0.09 µM in series [3] (Homo sapiens, 72 h).
Take `CNC(=O)c1cc2c(c(F)c1-c1c(Cl)c(F)cc3c1C[C@](c1ccccc1)([C@@H]1CCCN1)O3)N1C[C@@H](F)CC1CO2` (stereo partly drawn) [Compound 5a]: the IC50 in series [2] (Homo sapiens, 72 h) was 1.94 µM; in series [3] (Homo sapiens, 72 h), 3.14 µM.
In the same order, the values of `CNC(=O)c1cc2c(c(F)c1-c1c(Cl)c(F)cc3c1C[C@](c1ccccc1)([C@@H]1CCCN1)O3)N1CCCC1CO2` (stereo partly drawn) [Compound 3a] are 0.976 µM and 1.87 µM.
The like results for `CNC(=O)c1cnc(OCCO)c(O)c1-c1c(Cl)c(F)cc2c1C[C@](c1ccccc1)([C@@H]1CCCN1)O2` [Compound 6a] were, in that order, > 10 µM and > 10 µM.
In the same order, the values of `CNC(=O)c1cc2c(c(F)c1-c1c(Cl)c(F)cc3c1C[C@@](CN[C@H]1CC[C@](C)(O)CC1)(c1ccccc1)O3)CC(O)C2` (stereo partly drawn) [Compound 80a] are 0.49 µM and 0.58 µM.
With `CNC(=O)c1cc2c(c(F)c1-c1c(Cl)c(F)cc3c1C[C@](c1ccccc1)([C@@H]1CCCN1)O3)CC1(CC1)C2` [Compound 1a], the IC50 was 2.19 µM in series [2] (Homo sapiens, 72 h) and 4.75 µM in series [3] (Homo sapiens, 72 h).
The like results for `C#Cc1c(OCCO)ncc(C(=O)NC)c1-c1c(Cl)c(F)cc2c1C[C@](c1ccccc1)([C@@H]1CCCN1)O2` [Compound 9a] were, in that order, > 10 µM and 7.97 µM.
In the same order, the values of `CNC(=O)c1cnc(OCCO)c(F)c1-c1c(Cl)c(F)cc2c1C[C@](c1ccccc1)([C@@H]1CCC(=O)N1)O2` [Compound 19a] are > 10 µM and > 10 µM.
`CNC(=O)c1cc2c(c(F)c1-c1c(Cl)c(F)cc3c1C[C@](c1ccccc1)([C@@H]1CCCN1)O3)C[C@H](O)[C@H]2C` [Compound 57a1]: the IC50 turned out to be 0.39 µM in series [2] and 0.45 µM in series [3].
Turning to `NC(=O)c1cc2c(c(F)c1-c1c(Cl)c(F)cc3c1C[C@](c1ccccc1)([C@@H]1CCCN1)O3)CCC2` [Compound 52a], the IC50 was 0.17 µM in series [2] (Homo sapiens, 72 h) and 0.2 µM in series [3] (Homo sapiens, 72 h).
The like results for `CNC(=O)c1cnc(OCCO)c(F)c1-c1c(Cl)c(F)cc2c1C[C@](c1ccccc1)(c1ccn[nH]1)O2` [Compound 11a] were, in that order, > 10 µM and > 10 µM.
Turning to `C[C@]1(O)CC[C@H](NC[C@@]2(c3ccccc3)Cc3c(cc(F)c(Cl)c3-c3c(C(N)=O)cc4c(c3F)C3CC3O4)O2)CC1` (stereo partly drawn) [Compound 23a], the IC50 was 0.11 µM in series [2] (Homo sapiens, 72 h) and 0.2 µM in series [3] (Homo sapiens, 72 h).
Consider `CNC(=O)c1cc2c(c(F)c1-c1c(Cl)c(F)cc3c1C[C@](c1ccccc1)([C@@H]1CC4(CC4)CN1)O3)N1CCCC1CO2` (stereo partly drawn) [Compound 15a], for which the IC50 came out at 2.88 µM in series [2] (Homo sapiens, 72 h) and 2.73 µM in series [3] (Homo sapiens, 72 h).
The like results for `CNC(=O)c1cc2c(c(F)c1-c1c(Cl)c(F)cc3c1C[C@](c1ccccc1)([C@@H]1CCC(=O)N1)O3)C1CC1O2` (stereo partly drawn) [Compound 20a] were, in that order, > 10 µM and > 10 µM.
In the same order, the values of `CNC(=O)c1cnc(OCCO)c(OC)c1-c1c(Cl)c(F)cc2c1C[C@](c1ccccc1)([C@@H]1CCCN1)O2` [Compound 7a] are 9.8 µM and 9.08 µM.
The like results for `CNC(=O)c1cc2c(c(F)c1-c1c(Cl)c(F)cc3c1C[C@](c1ccccc1)([C@@H]1CCCN1)O3)CC(=O)C2` [Compound 65a] were, in that order, > 10 µM and > 10 µM.
As to `C[C@H]1c2c(cc(F)c(Cl)c2-c2c(C(N)=O)cc3c(c2F)OC2CC32)O[C@]1(CN[C@H]1CC[C@](C)(O)CC1)c1ccccc1` (stereo partly drawn) [Compound 28a], the IC50 in series [2] (Homo sapiens, 72 h) was 0.04 µM; in series [3] (Homo sapiens, 72 h), 0.05 µM.
`CNC(=O)c1cc2c(c(F)c1-c1c(Cl)c(F)cc3c1C[C@](c1ccccc1)([C@@H]1CCCN1)O3)CCC2(F)F` [Compound 36a]: the IC50 in series [2] (Homo sapiens, 72 h) was found to be 0.45 µM; in series [3] (Homo sapiens, 72 h) it was 0.65 µM.
In the same order, the values of `CNC(=O)c1cc2c(c(F)c1-c1c(Cl)c(F)cc3c1C[C@](c1ccccc1)([C@@H]1CCCN1)O3)CC(O)C2` (stereo partly drawn) [Compound 49a] are 0.15 µM and 0.24 µM.
The like results for `CNC(=O)c1cc2c(c(F)c1-c1c(Cl)c(F)cc3c1C[C@@](CN[C@H]1CC[C@](C)(O)CC1)(c1ccccc1)O3)CCC2O` (stereo partly drawn) [Compound 42a] were, in that order, 0.73 µM and 0.9 µM.
As to `CNC(=O)c1cc2c(c(F)c1-c1c(Cl)c(F)cc3c1C[C@@](CN[C@H]1CC[C@](C)(O)CC1)(c1ccccc1)O3)CCC2` [Compound 30a], the IC50 in series [2] (Homo sapiens, 72 h) is 0.3 µM; in series [3] (Homo sapiens, 72 h) it was 0.55 µM.
In the same order, the values of `CNC(=O)c1cnc(OCCO)c(N)c1-c1c(Cl)c(F)cc2c1C[C@](c1ccccc1)([C@@H]1CCCN1)O2` [Compound 8a] are > 10 µM and > 10 µM.
